Values joined by “and” are separate entries in the source; they are usually repeats but may differ in a detail not shown here. Identical values can stand only once.
What was measured:
[1] = Effect of hypericin on hematologic parameters and blood chemistries of mouse blood; parameters: Hematocrit: unit not given here; conditions: for BUN / Hb / Hematocrit / WBC / albumin / alk. phos. / calcium / chloride / cholesterol / creatinine / globulins / glucose / iron / phosphorous / retics / sodium / total bilirubin / total protein / triglycerides / uric acid: mouse blood
Method: Analogous experiments to assess the effect of hypericin on routine clinical chemistries and hematologic parameters were determined in a commercial laboratory on mouse blood using higher concentrations of hypericin. Eight blood samples drawn in parallel were treated with hypericin ranging in concentration from 2.5 micrograms/ml to 200 micrograms/ml of whole blood.

HIV [2] = assay: Infectivity (ability to replicate in culture) of HIV derived from H9 cell cultures; type: cell-based, Human Immunodeficiency Virus (HIV)
Method: FIG. 2 is a graph showing the effect of hypericin and pseudohypericin on the infectivity of HIV cultured from an AIDS patient.
(§1) In FIG. 1, open squares represent hypericin-treated and pluses represent pseudohypericin treated HIV. […] Inactivation of the reverse transcriptase activity of the virions was not a result of a direct inhibition of reverse transcriptase activity per se, as incubation of either compound directly with purified reverse transcriptase from either avian myeloblastosis virus or murine leukemia virus had no effect on enzyme activity. Furthermore, aliquots of HIV derived from these H9 cell cultures lost the ability to replicate in culture when exposed to as little as 0.77 micrograms/ml of hypericin.

HIV [3] = assay: Incubation time of free HIV virus with hypericin needed to inhibit infectivity; type: cell-based, Human Immunodeficiency Virus (HIV)
[4] = target: purified reverse transcriptase from murine leukemia virus (Moloney murine leukemia virus isolate Shinnick, UniProt P03355); assay: Direct incubation with purified reverse transcriptase; type: biochemical
Method: as §1

[5] = system: purified reverse transcriptase from avian myeloblastosis virus; assay: as above; type: biochemical
Method: as §1

SMILES: Cc1cc(O)c2c(=O)c3c(O)cc(O)c4c5c(O)cc(O)c6c(=O)c7c(O)cc(C)c8c1c2c(c34)c(c78)c65 [hypericin]
- BUN ([1]; 2.5 μg hypericin): 18 mg/dL and 17 mg/dL
- Hb ([1]; 2.5 μg hypericin): 12.7 gm, dl
- Hematocrit ([1]; 2.5 μg hypericin): 38.3 and 37.8
- WBC ([1]; 2.5 μg hypericin): 4.6 /cumm and 4.8 /cumm
- albumin ([1]; 2.5 μg hypericin): 3.4 g/dL and 2.6 g/dL
- alk. phos. ([1]; 2.5 μg hypericin): 140 IU/l and 121 IU/l
- calcium ([1]; 2.5 μg hypericin): 6.7 mg/dL and 5.4 mg/dL
- chloride ([1]; 2.5 μg hypericin): 113 meq/l and 102 meq/l
- cholesterol ([1]; 2.5 μg hypericin): 149 mg/dL and 143 mg/dL
- creatinine ([1]; 2.5 μg hypericin): 0.4 mg/dL
- globulins ([1]; 2.5 μg hypericin): 2.6 g/dL and 3.2 g/dL
- glucose ([1]; 2.5 μg hypericin): 113 mg/dL and 68 mg/dL
- iron ([1]; 2.5 μg hypericin): 219 mog/dl and 169 mog/dl
- phosphorous ([1]; 2.5 μg hypericin): 8.1 mg/dL and 7.2 mg/dL
- retics ([1]; 2.5 μg hypericin): 1.5% and 2.3%
- sodium ([1]; 2.5 μg hypericin): 150 meq/l and 138 meq/l
- total bilirubin ([1]; 2.5 μg hypericin): 0.8 mg/dL and 1.2 mg/dL
- total protein ([1]; 2.5 μg hypericin): 6.0 g/dL and 5.8 g/dL
- triglycerides ([1]; 2.5 μg hypericin): 80 mg/dL and 77 mg/dL
- uric acid ([1]; 2.5 μg hypericin): 2.6 mg/dL and 2.8 mg/dL
- BUN ([1]; 5.0 μg hypericin): 18 mg/dL
- Hb ([1]; 5.0 μg hypericin): 12.9 gm, dl and 12.4 gm, dl
- Hematocrit ([1]; 5.0 μg hypericin): 38.5
- WBC ([1]; 5.0 μg hypericin): 4.7 /cumm and 4.5 /cumm
- albumin ([1]; 5.0 μg hypericin): 3.5 g/dL
- alk. phos. ([1]; 5.0 μg hypericin): 140 IU/l
- calcium ([1]; 5.0 μg hypericin): 7.0 mg/dL
- chloride ([1]; 5.0 μg hypericin): 113 meq/l
- cholesterol ([1]; 5.0 μg hypericin): 156 mg/dL
- creatinine ([1]; 5.0 μg hypericin): 0.4 mg/dL
- glucose ([1]; 5.0 μg hypericin): 112 mg/dL
- iron ([1]; 5.0 μg hypericin): 220 mog/dl
- phosphorous ([1]; 5.0 μg hypericin): 8.1 mg/dL
- retics ([1]; 5.0 μg hypericin): 2.2% and 2.0%
- sodium ([1]; 5.0 μg hypericin): 150 meq/l
- total bilirubin ([1]; 5.0 μg hypericin): 0.8 mg/dL
- triglycerides ([1]; 5.0 μg hypericin): 85 mg/dL
- uric acid ([1]; 5.0 μg hypericin): 2.7 mg/dL
- BUN ([1]; 10 μg hypericin): 18 mg/dL
- Hb ([1]; 10 μg hypericin): 12.8 gm, dl and 12.3 gm, dl
- Hematocrit ([1]; 10 μg hypericin): 37.8
- WBC ([1]; 10 μg hypericin): 4.5 /cumm
- albumin ([1]; 10 μg hypericin): 3.5 g/dL
- alk. phos. ([1]; 10 μg hypericin): 138 IU/l and 140 IU/l
- calcium ([1]; 10 μg hypericin): 6.7 mg/dL
- chloride ([1]; 10 μg hypericin): 112 meq/l
- cholesterol ([1]; 10 μg hypericin): 155 mg/dL
- creatinine ([1]; 10 μg hypericin): 0.3 mg/dL
- globulins ([1]; 10 μg hypericin): 3.0 g/dL
- glucose ([1]; 10 μg hypericin): 113 mg/dL
- iron ([1]; 10 μg hypericin): 218 mog/dl and 220 mog/dl
- phosphorous ([1]; 10 μg hypericin): 8.2 mg/dL and 8.1 mg/dL
- retics ([1]; 10 μg hypericin): 1.7% and 0.5%
- sodium ([1]; 10 μg hypericin): 148 meq/l
- total bilirubin ([1]; 10 μg hypericin): 0.8 mg/dL and 0.9 mg/dL
- total protein ([1]; 10 μg hypericin): 6.5 g/dL
- triglycerides ([1]; 10 μg hypericin): 67 mg/dL and 64 mg/dL
- uric acid ([1]; 10 μg hypericin): 2.9 mg/dL and 3.0 mg/dL
- BUN ([1]; 25 μg hypericin): 18 mg/dL
- Hb ([1]; 25 μg hypericin): 12.8 gm, dl
- Hematocrit ([1]; 25 μg hypericin): 37.7 and 37.9
- WBC ([1]; 25 μg hypericin): 4.7 /cumm
- albumin ([1]; 25 μg hypericin): 3.7 g/dL and 3.6 g/dL
- alk. phos. ([1]; 25 μg hypericin): 136 IU/l and 134 IU/l
- calcium ([1]; 25 μg hypericin): 6.7 mg/dL and 6.3 mg/dL
- chloride ([1]; 25 μg hypericin): 111 meq/l and 110 meq/l
- cholesterol ([1]; 25 μg hypericin): 166 mg/dL and 162 mg/dL
- creatinine ([1]; 25 μg hypericin): 0.3 mg/dL
- globulins ([1]; 25 μg hypericin): 3.1 g/dL and 3.3 g/dL
- glucose ([1]; 25 μg hypericin): 111 mg/dL and 110 mg/dL
- iron ([1]; 25 μg hypericin): 218 mog/dl and 219 mog/dl
- phosphorous ([1]; 25 μg hypericin): 8.2 mg/dL and 8.1 mg/dL
- retics ([1]; 25 μg hypericin): 0.8% and 0.3%
- sodium ([1]; 25 μg hypericin): 146 meq/l and 144 meq/l
- total bilirubin ([1]; 25 μg hypericin): 0.9 mg/dL
- total protein ([1]; 25 μg hypericin): 6.8 g/dL and 6.9 g/dL
- triglycerides ([1]; 25 μg hypericin): 80 mg/dL and 84 mg/dL
- uric acid ([1]; 25 μg hypericin): 3.9 mg/dL and 3.8 mg/dL
- BUN ([1]; 50 μg hypericin): 18 mg/dL
- Hb ([1]; 50 μg hypericin): 12.8 gm, dl
- Hematocrit ([1]; 50 μg hypericin): 38.1 and 38.0
- WBC ([1]; 50 μg hypericin): 4.8 /cumm
- albumin ([1]; 50 μg hypericin): 3.5 g/dL
- alk. phos. ([1]; 50 μg hypericin): 141 IU/l
- calcium ([1]; 50 μg hypericin): 6.6 mg/dL and 6.8 mg/dL
- chloride ([1]; 50 μg hypericin): 113 meq/l
- cholesterol ([1]; 50 μg hypericin): 152 mg/dL and 150 mg/dL
- creatinine ([1]; 50 μg hypericin): 0.4 mg/dL
- globulins ([1]; 50 μg hypericin): 3.0 g/dL
- glucose ([1]; 50 μg hypericin): 113 mg/dL and 114 mg/dL
- iron ([1]; 50 μg hypericin): 220 mog/dl and 221 mog/dl
- phosphorous ([1]; 50 μg hypericin): 8.3 mg/dL and 8.2 mg/dL
- retics ([1]; 50 μg hypericin): 1.4% and 2.5%
- sodium ([1]; 50 μg hypericin): 148 meq/l
- total bilirubin ([1]; 50 μg hypericin): 0.8 mg/dL and 0.9 mg/dL
- total protein ([1]; 50 μg hypericin): 6.5 g/dL
- triglycerides ([1]; 50 μg hypericin): 61 mg/dL and 62 mg/dL
- uric acid ([1]; 50 μg hypericin): 3.0 mg/dL and 2.8 mg/dL
- BUN ([1]; 100 μg hypericin): 18 mg/dL and 17 mg/dL
- Hb ([1]; 100 μg hypericin): 12.8 gm, dl and 13.2 gm, dl
- Hematocrit ([1]; 100 μg hypericin): 37.8 and 38.4
- WBC ([1]; 100 μg hypericin): 4.9 /cumm and 5.0 /cumm
- albumin ([1]; 100 μg hypericin): 3.5 g/dL and 3.4 g/dL
- alk. phos. ([1]; 100 μg hypericin): 140 IU/l and 138 IU/l
- calcium ([1]; 100 μg hypericin): 6.6 mg/dL
- cholesterol ([1]; 100 μg hypericin): 153 mg/dL and 151 mg/dL
- creatinine ([1]; 100 μg hypericin): 0.4 mg/dL
- globulins ([1]; 100 μg hypericin): 3.0 g/dL and 2.7 g/dL
- iron ([1]; 100 μg hypericin): 220 mog/dl and 216 mog/dl
- phosphorous ([1]; 100 μg hypericin): 8.2 mg/dL and 8.0 mg/dL
- retics ([1]; 100 μg hypericin): 0.8% and 0.7%
- sodium ([1]; 100 μg hypericin): 149 meq/l and 146 meq/l
- total bilirubin ([1]; 100 μg hypericin): 1.0 mg/dL
- total protein ([1]; 100 μg hypericin): 6.5 g/dL and 6.1 g/dL
- triglycerides ([1]; 100 μg hypericin): 92 mg/dL and 87 mg/dL
- uric acid ([1]; 100 μg hypericin): 3.2 mg/dL and 3.1 mg/dL
- BUN ([1]; 200 μg hypericin): 18 mg/dL
- Hb ([1]; 200 μg hypericin): 12.6 gm, dl and 12.7 gm, dl
- Hematocrit ([1]; 200 μg hypericin): 37.5 and 34.6
- WBC ([1]; 200 μg hypericin): 4.4 /cumm and 4.6 /cumm
- albumin ([1]; 200 μg hypericin): 3.5 g/dL
- alk. phos. ([1]; 200 μg hypericin): 139 IU/l and 140 IU/l
- calcium ([1]; 200 μg hypericin): 6.6 mg/dL
- chloride ([1]; 200 μg hypericin): 110 meq/l and 111 meq/l
- cholesterol ([1]; 200 μg hypericin): 155 mg/dL and 157 mg/dL
- creatinine ([1]; 200 μg hypericin): 0.4 mg/dL
- globulins ([1]; 200 μg hypericin): 3.3 g/dL and 2.9 g/dL
- glucose ([1]; 200 μg hypericin): 122 mg/dL and 111 mg/dL
- iron ([1]; 200 μg hypericin): 211 mog/dl and 215 mog/dl
- phosphorous ([1]; 200 μg hypericin): 7.9 mg/dL and 8.0 mg/dL
- retics ([1]; 200 μg hypericin): 2.8% and 0.6%
- sodium ([1]; 200 μg hypericin): 145 meq/l and 147 meq/l
- total bilirubin ([1]; 200 μg hypericin): 1.1 mg/dL
- total protein ([1]; 200 μg hypericin): 6.8 g/dL and 6.4 g/dL
- triglycerides ([1]; 200 μg hypericin): 92 mg/dL and 89 mg/dL
- uric acid ([1]; 200 μg hypericin): 3.8 mg/dL and 3.6 mg/dL
- effect on clinical chemistries and hematological parameters (summary) ([1]; up to 200 micrograms/ml): did not significantly affect
- concentration abolishing infectivity of HIV (loss of ability to replicate in culture) (HIV [2]): 0.77 micrograms/ml
- minimal effective concentration (HIV [2]; Human immunodeficiency virus 1, read-out: concentration abolishing infectivity of HIV (loss of ability to replicate in culture)): 0.77 µg/mL
- inhibition of virus infectivity (HIV [3]; 10 and 5 minutes incubation): complete
- inhibition of virus infectivity (HIV [3]; only the time to add compound and centrifuge): significant inhibition
- effect on enzyme activity of purified reverse transcriptase [4]: no effect
- effect on enzyme activity of purified reverse transcriptase [5]: no effect

Source: patent US5326788A, “Biological fluid purification system” (priority 1992, dated 1994)
